{
  "source": "patent US5169863A",
  "about": "“Hypersphyxia-causing methods” (K.K. Ueno Seiyaku Oyo Kenkyujo, priority 1988, dated 1992)",
  "key": {"[1]": {"test": "changing rate of blood pressure and heart rate by intravenous injection in anesthetized rats", "type": "in vivo, Wister male rats", "settings": "Rattus norvegicus, 1 (mg/kg)", "method": "(blood pressure, heart rate increasing action by intravenous injection) Wister male rats (8 weeks old) were used as test animals. The rats were applied to anesthesia by intraperitoneal administration with 1.25 g/kg of urethane. The blood pressure was determined by inserting a polyethylene tube into a femoral artery, which was connected with a pressure transducer. The heart rate was determined from R wave of electrocardiograms (ECG) induced by standard limb lead II with a tachometer. Each test compound was dissolved in ethanol and intravenously administered to rats in 1 mg/kg diluted with Ringer's solution just before use. The maximum concentration of ethanol was 2 percent. An ethanol-containing Ringer without any test compound was used as a control to confirm the influence of the ethanol in each experiment. Each changing rate (%) in the blood pressure and heart rate before and after administration was determined, and the average of 3-4 experiments was shown in Table 1. Changing rates of blood pressure and heart rate were determined in the same manner as described in Example 1 except that the test compounds 60, 61 and 62 were used in different concentrations instead of the test compounds 1-55."}, "[2]": {"test": "progressing a breath (change rate of breath rate)", "type": "in vivo, Wister male rats", "settings": "Rattus norvegicus, iv, tail vein, rats", "method": "Wister male rats (8 weeks old) were applied to anesthesia by intraperitoneal administration with 1.25 g/kg of urethane. A pick-up for breath was fixed on a top of a rat's nose, and the breath curve was recorded on a polygraph while the breath rate was counted with a tachometer.\nEach test compound was dissolved in ethanol and administered to rats through a tale vein in 1 mg/kg as diluted with Ringer's solution just before use. The maximum concentration of ethanol was 2 percent. Ringers solution containing ethanol but not containing test compound was administered at every experiment as a control. The change rates (%) of the breath rate before and after administration were determined, and evaluated as progressing activity of breath."}, "[3]": {"settings": "Table 1, read-out: changing rate of blood pressure"}, "[4]": {"settings": "Table 1, read-out: changing rate of heart rate"}},
  "data": [
    {"compound": "CCCCCC(=O)CC[C@H]1[C@H](O)CC(=O)[C@@H]1C/C=C\\CC=CC(=O)OC", "note": "[Compound 27, 13,14-dihydro-15-keto-Δ^2 -PGE2-methyl ester]", "values": [
      {"measurement": "change in vivo at 1 mg/kg", "setting": "[1]; [3]", "result": 6, "unit": "%"},
      {"measurement": "change in vivo at 1 mg/kg", "setting": "[1]; [4]", "result": 21, "unit": "%"},
      {"measurement": "change in vivo at 1 mg/kg", "setting": "[2]", "result": 11, "unit": "%"}
    ]},
    {"compound": "CCCCCC(=O)CC[C@H]1[C@H](O)CC(=O)[C@@H]1C/C=C\\CC(C)CC(=O)OC", "note": "(stereo partly drawn) [Compound 28, 13,14-dihydro-15-keto-3R,S-methyl-PGE2 methyl ester]", "values": [
      {"measurement": "change in vivo at 1 mg/kg", "setting": "[1]; [3]", "result": 12, "unit": "%"},
      {"measurement": "change in vivo at 1 mg/kg", "setting": "[1]; [4]", "result": 33, "unit": "%"},
      {"measurement": "change in vivo at 1 mg/kg", "setting": "[2]", "result": 40, "unit": "%"}
    ]},
    {"compound": "CCCCCC(=O)CC[C@H]1[C@H](O)CC(=O)[C@@H]1C/C=C\\CC(C)CC(=O)OCC", "note": "(stereo partly drawn) [Compound 29, 13,14-dihydro-15-keto-3R,S-methyl-PGE2 ethyl ester]", "values": [
      {"measurement": "change in vivo at 1 mg/kg", "setting": "[1]; [3]", "result": 7, "unit": "%"},
      {"measurement": "change in vivo at 1 mg/kg", "setting": "[1]; [4]", "result": 17, "unit": "%"},
      {"measurement": "change in vivo at 1 mg/kg", "setting": "[2]", "result": 11, "unit": "%"}
    ]},
    {"compound": "CCCCC(C)C(=O)CC[C@H]1[C@H](O)CC(=O)[C@@H]1C/C=C\\CCCC(=O)OC", "note": "(stereo partly drawn) [Compound 30, 13,14-dihydro-15-keto-16R,S-methyl-PGE2 methyl ester]", "values": [
      {"measurement": "change in vivo at 1 mg/kg", "setting": "[1]; [3]", "result": 14, "unit": "%"},
      {"measurement": "change in vivo at 1 mg/kg", "setting": "[1]; [4]", "result": 29, "unit": "%"},
      {"measurement": "change in vivo at 1 mg/kg", "setting": "[2]", "result": 61, "unit": "%"}
    ]},
    {"compound": "CCCCC(C)C(=O)CC[C@H]1[C@H](O)CC(=O)[C@@H]1C/C=C\\CCCC(=O)OCC", "note": "(stereo partly drawn) [Compound 31, 13,14-dihydro-15-keto-16R,S-methyl-PGE2 ethyl ester]", "values": [
      {"measurement": "change in vivo at 1 mg/kg", "setting": "[1]; [3]", "result": 14, "unit": "%"},
      {"measurement": "change in vivo at 1 mg/kg", "setting": "[1]; [4]", "result": 46, "unit": "%"},
      {"measurement": "change in vivo at 1 mg/kg", "setting": "[2]", "result": 40, "unit": "%"}
    ]},
    {"compound": "CCCCC(C)C(=O)CC[C@H]1[C@H](O)CC(=O)[C@@H]1C/C=C\\CC(C)CC(=O)OC", "note": "(stereo partly drawn) [Compound 32, 13,14-dihydro-15-keto-3R,S-16R,S-dimethyl-PGE2 methyl ester]", "values": [
      {"measurement": "change in vivo at 1 mg/kg", "setting": "[1]; [3]", "result": 14, "unit": "%"},
      {"measurement": "change in vivo at 1 mg/kg", "setting": "[1]; [4]", "result": 30, "unit": "%"},
      {"measurement": "change in vivo at 1 mg/kg", "setting": "[2]", "result": 41, "unit": "%"}
    ]},
    {"compound": "CCCCC(C)(C)C(=O)CC[C@H]1[C@H](O)CC(=O)[C@@H]1C/C=C\\CCCC(=O)OC", "note": "[Compound 33, 13,14-dihydro-15-keto-16,16-dimethyl-PGE2 methyl ester]", "values": [
      {"measurement": "change in vivo at 1 mg/kg", "setting": "[1]; [3]", "result": 20, "unit": "%"},
      {"measurement": "change in vivo at 1 mg/kg", "setting": "[1]; [4]", "result": 28, "unit": "%"},
      {"measurement": "change in vivo at 1 mg/kg", "setting": "[2]", "result": 40, "unit": "%"}
    ]},
    {"compound": "CCCCC(C)(C)C(=O)CC[C@H]1[C@H](O)CC(=O)[C@@H]1C/C=C\\CCCC(=O)OCC", "note": "[Compound 34, 13,14-dihydro-15-keto-16,16-dimethyl-PGE2 ethyl ester]", "values": [
      {"measurement": "change in vivo at 1 mg/kg", "setting": "[1]; [3]", "result": 6, "unit": "%"},
      {"measurement": "change in vivo at 1 mg/kg", "setting": "[1]; [4]", "result": 29, "unit": "%"},
      {"measurement": "change in vivo at 1 mg/kg", "setting": "[2]", "result": 31, "unit": "%"}
    ]},
    {"compound": "CCCCC(O)C(=O)CC[C@H]1[C@H](O)CC(=O)[C@@H]1C/C=C\\CCCC(=O)OCC", "note": "(stereo partly drawn) [Compound 35, 13,14-dihydro-15-keto-16R,S-hydroxy-PGE2 ethyl ester]", "values": [
      {"measurement": "change in vivo at 1 mg/kg", "setting": "[1]; [3]", "result": 17, "unit": "%"},
      {"measurement": "change in vivo at 1 mg/kg", "setting": "[1]; [4]", "result": 27, "unit": "%"},
      {"measurement": "change in vivo at 1 mg/kg", "setting": "[2]", "result": 37, "unit": "%"}
    ]},
    {"compound": "CCCCC(F)C(=O)CC[C@H]1[C@H](O)CC(=O)[C@@H]1C/C=C\\CCCC(=O)OCC", "note": "(stereo partly drawn) [Compound 38, 13,14-dihydro-15-keto-16R,S-fluoro-PGE2 ethyl ester]", "values": [
      {"measurement": "change in vivo at 1 mg/kg", "setting": "[1]; [3]", "result": 14, "unit": "%"},
      {"measurement": "change in vivo at 1 mg/kg", "setting": "[1]; [4]", "result": 15, "unit": "%"},
      {"measurement": "change in vivo at 1 mg/kg", "setting": "[2]", "result": 47, "unit": "%"}
    ]},
    {"compound": "CCCCC(F)C(=O)CC[C@H]1[C@H](C)CC(=O)[C@@H]1C/C=C\\CCCC(=O)OCC", "note": "(stereo partly drawn) [Compound 40, 13,14-dihydro-15-keto-16R,S-fluoro-11-dehydroxy-11R-methyl-PGE2 ethyl ester]", "values": [
      {"measurement": "change in vivo at 1 mg/kg", "setting": "[1]; [3]", "result": 17, "unit": "%"},
      {"measurement": "change in vivo at 1 mg/kg", "setting": "[1]; [4]", "result": 27, "unit": "%"},
      {"measurement": "change in vivo at 1 mg/kg", "setting": "[2]", "result": 16, "unit": "%"}
    ]},
    {"compound": "CCCCCC(=O)CC[C@H]1[C@H](C)CC(=O)[C@@H]1C/C=C\\CCCC(=O)OCC", "note": "[Compound 41, 13,14-dihydro-15-keto-11-dehydroxy-11R-methylPGE2 ethyl ester]", "values": [
      {"measurement": "change in vivo at 1 mg/kg", "setting": "[1]; [3]", "result": 11, "unit": "%"},
      {"measurement": "change in vivo at 1 mg/kg", "setting": "[1]; [4]", "result": 26, "unit": "%"},
      {"measurement": "change in vivo at 1 mg/kg", "setting": "[2]", "result": 20, "unit": "%"}
    ]},
    {"compound": "CCC[C@H](C)CC(=O)CC[C@H]1[C@H](O)CC(=O)[C@@H]1C/C=C\\CCCC(=O)OC", "note": "[Compound 42, 13,14-dihydro-15-keto-17S-methyl-PGE2 methyl ester]", "values": [
      {"measurement": "change in vivo at 1 mg/kg", "setting": "[1]; [3]", "result": 12, "unit": "%"},
      {"measurement": "change in vivo at 1 mg/kg", "setting": "[1]; [4]", "result": 7, "unit": "%"},
      {"measurement": "change in vivo at 1 mg/kg", "setting": "[2]", "result": 28, "unit": "%"}
    ]},
    {"compound": "COC(=O)CCC/C=C\\C[C@H]1C(=O)C[C@@H](O)[C@@H]1CCC(=O)CCCC(C)C", "note": "[Compound 43, 13,14-dihydro-15-keto-19-methyl-PGE2 methyl ester]", "values": [
      {"measurement": "change in vivo at 1 mg/kg", "setting": "[1]; [3]", "result": 14, "unit": "%"},
      {"measurement": "change in vivo at 1 mg/kg", "setting": "[1]; [4]", "result": 45, "unit": "%"},
      {"measurement": "change in vivo at 1 mg/kg", "setting": "[2]", "result": 41, "unit": "%"}
    ]}
  ]
}
